# According to article PMC11156954, “Inhibition and transport mechanisms of the ABC transporter hMRP5” (Nature Communications, 2024):
# Like-named read-outs stand apart in the source and are kept apart here.
# Key:
# [1] = test system: MRP5; conditions: reducing expression of endogenous MRP5; drug and, for 5-fluorouracil, its metabolites; ref [24],[25]; cited from earlier work
# Excerpt: Patients with high hMRP5 levels tend to have a worse survival rate than those with low expression[20]–[22]. Further, overexpression of hMRP5 is a strong predictor of poor outcomes in cancer patient cohorts[19],[22],[23].
# [2] = test system: hMRP5; set-up: method as in 2 sources, ref [15]–[18] = [15]; PMID 28277541; doi:10.1038/cddis.2017.53; 15. Hou Y The FOXM1-ABCC5 axis contributes to paclitaxel resistance in nasopharyngeal carcinoma cells Cell Death Dis. 2017 8 e2659 10.1038/cddis.2017.53 28277541 PMC5386553 || [16]; PMID 26975227; doi:10.1038/tpj.2016.17; 16. Lal S Pharmacogenetics of ABCB5, ABCC5 and RLIP76 and doxorubicin pharmacokinetics in Asian breast cancer patients Pharmacogenomics J. 2017 17 337 343 10.1038/tpj.2016.17 26975227 || [17]; PMID 15897250; doi:10.1158/1535-7163.MCT-04-0291; 17. Pratt S The multidrug resistance protein 5 (ABCC5) confers resistance to 5-fluorouracil and transports its monophosphorylated metabolites Mol. Cancer Ther. 2005 4 855 863 10.1158/1535-7163.MCT-04- || [18]; PMID 10840050; doi:10.1073/pnas.120159197; 18. Wijnholds J Multidrug-resistance protein 5 is a multispecific organic anion transporter able to transport nucleotide analogs Proc. Nat. Acad. Sci. USA 2000 97 7476 7481 10.1073/pnas.120159197 1084 ||| ref [18] = [18]; PMID 10840050; doi:10.1073/pnas.120159197; 18. Wijnholds J Multidrug-resistance protein 5 is a multispecific organic anion transporter able to transport nucleotide analogs Proc. Nat. Acad. Sci. USA 2000 97 7476 7481 10.1073/pnas.120159197 1084; conditions: cited from earlier work; for efflux by hMRP5 / contribution to drug resistance, in words: anticancer drugs, ref [15]–[18]
# [3] = target: T1, hMRP5-Δ1-94 (Homo sapiens, UniProt O15440); experiment: MST binding assay, hMRP5-Δ1-94; conditions: for binding affinity to hMRP5, in words: MST, digitonin-purified hMRP5-Δ1-94, 15 min at room temperature
# T1 construct: The codon-optimized full-length human ABCC5 gene encoding the MRP5 protein (UniProt ID: O15440); 8xHis (C); 2xstrep (C); made in house; host or cells: HEK293F
# T1 sequence (O15440 95-1437 limits assumed, stated change not applied): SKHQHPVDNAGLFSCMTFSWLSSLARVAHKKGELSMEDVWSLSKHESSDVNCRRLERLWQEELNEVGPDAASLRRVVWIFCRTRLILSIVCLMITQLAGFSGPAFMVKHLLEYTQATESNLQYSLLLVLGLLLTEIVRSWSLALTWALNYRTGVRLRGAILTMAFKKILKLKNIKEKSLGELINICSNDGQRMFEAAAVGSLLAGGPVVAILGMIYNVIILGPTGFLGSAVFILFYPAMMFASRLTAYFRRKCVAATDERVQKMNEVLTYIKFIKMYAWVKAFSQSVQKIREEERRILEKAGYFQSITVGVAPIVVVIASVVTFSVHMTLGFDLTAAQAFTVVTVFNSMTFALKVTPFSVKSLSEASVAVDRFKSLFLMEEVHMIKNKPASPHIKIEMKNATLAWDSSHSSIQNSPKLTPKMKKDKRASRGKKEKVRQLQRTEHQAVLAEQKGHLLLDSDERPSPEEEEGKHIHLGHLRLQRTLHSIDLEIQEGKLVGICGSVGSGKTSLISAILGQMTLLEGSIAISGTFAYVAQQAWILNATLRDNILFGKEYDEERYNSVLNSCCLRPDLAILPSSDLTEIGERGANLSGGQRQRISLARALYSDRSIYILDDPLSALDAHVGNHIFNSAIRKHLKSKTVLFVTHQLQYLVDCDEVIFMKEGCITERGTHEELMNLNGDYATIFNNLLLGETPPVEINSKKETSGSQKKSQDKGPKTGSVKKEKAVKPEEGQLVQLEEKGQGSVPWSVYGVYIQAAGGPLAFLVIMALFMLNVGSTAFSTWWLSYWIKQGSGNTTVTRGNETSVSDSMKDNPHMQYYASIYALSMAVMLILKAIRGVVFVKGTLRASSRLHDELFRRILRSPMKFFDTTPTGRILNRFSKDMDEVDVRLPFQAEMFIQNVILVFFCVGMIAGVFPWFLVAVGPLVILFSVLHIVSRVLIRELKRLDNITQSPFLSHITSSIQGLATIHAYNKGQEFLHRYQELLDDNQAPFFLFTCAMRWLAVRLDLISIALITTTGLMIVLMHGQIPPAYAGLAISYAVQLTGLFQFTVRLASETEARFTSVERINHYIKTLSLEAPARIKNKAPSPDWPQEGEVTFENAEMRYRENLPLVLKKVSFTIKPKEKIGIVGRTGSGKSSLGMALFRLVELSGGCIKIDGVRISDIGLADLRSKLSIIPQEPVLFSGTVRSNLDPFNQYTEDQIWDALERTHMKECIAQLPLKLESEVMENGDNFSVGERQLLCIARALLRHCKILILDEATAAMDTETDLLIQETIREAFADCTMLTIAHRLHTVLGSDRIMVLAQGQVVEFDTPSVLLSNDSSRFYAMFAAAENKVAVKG
# Protocol: We monitored the binding of different peptides to digitonin-purified hMRP5-Δ1-94-8xHis by MST assay (Monolith NT). HEPES buffer was used to replace Tris buffer during protein purification in the MST assay. The purified protein was mixed with RED-tris-NTA 2nd Generation dye (NanoTemper, MO-L018). Next, serially diluted peptides were mixed with the labeled protein. The mixtures were incubated for 15 min at room temperature, then the capillaries were loaded and the samples were assessed at 3% LED/excitation power and medium MST power. All peptides used in this study were synthesized in GL Biochem (Shanghai). The peptide sequence is provided as Source Data 5. The MST data were analyzed with MO.Affinity Analysis software.
# [4] = test system: GFP-hMRP5; experiment: Doxorubicin transport assay in Xenopus laevis oocytes; type: cell-based, human; conditions: no peptide, 200 μM doxorubicin, 180 min, Kulori buffer pH 7.4, final 50 μl extract, LC-MS, *P = 0.0190 blank vs GFP-hMRP5
# Protocol: The transport assay was essentially done and modified as described. In brief, the cRNAs of C-terminal GFP-tagged hMRP5 and C-terminal mcherry-tagged M5PI were prepared from the linearized pcs2CAG vector DNA templates using the mMESSAGE mMACHINE T7 transcription system (Thermo Scientific, AM1344). Xenopus oocytes were injected with approximately 30 nl of cRNA (GFP-tagged hMRP5 and mcherry-tagged M5PI have the equal quantity 30 ng) or water after maintained in ND96 solution (96 mM NaCl, 2 mM KCl, 1 mM MgCl2, 1.8 mM CaCl2, 5 mM HEPES, pH 7.4) overnight. After 3 days of culture, the GFP and mcherry fluorescence of oocytes was detected using Nikon Confocal A1R, and oocytes showing similar fluorescence intensity were selected for assay. Then, oocytes were pre-incubated in Kulori buffer (90 mM NaCl, 1 mM KCl, 1 mM MgCl2, 5 mM HEPES, pH 7.4) for 5 min before being transferred to 1 ml Kulori buffer containing 200 μM doxorubicin for 180 min. The assay was stopped by removing the buffer and then washed with Kulori buffer at least 3 times and transferred into 1.5 ml tubes (3 oocytes per tube). Excess washing buffer was removed from the tube, and then 50 μl 50% methanol was added to the tube for oocyte homogenization by pipetting. The homogenized samples were centrifuged at 10,000 × g for 10 min at 4 °C, and the supernatants were transferred into new tubes and incubated at −20 °C until further analysis. The samples were acquired with a Q Exactive mass spectrometer coupled with UltiMate 3000 liquid chromatography system (Thermo scientific, CA, USA) after centrifugation at 20,000 × g for 15 min at 4 °C. A Hypersil GOLDTM C18 column (2.1 ×100 mm, 1.9 μm, Thermo Scientific) was used at a flow rate of 0.3 ml min^−1 for separation. Mobile phase A was 0.1% formic acid, while mobile phase B was acetonitrile modified with 0.1% formic acid. The mass spectrometer was operated in positive mode with a spray voltage of 3.5 kV. Full scan mass spectrometry data were recorded from the m/z range of 80–800. A standard dilution curve for quantification of doxorubicin was done. Statistical analysis of the transport assay results was performed using GraphPad Prism. Source data is provided as Source Data 6. The mass spectrometry data is provided as Supplementary Data 3.
# [5] = test system: MRP5; set-up: method as in PMID 16337112, PMID 15006554, PMID 10893247; conditions: ref [25],[29],[30]; cited from earlier work
# [6] = target: T2, hMRP4 (Homo sapiens, UniProt O15439); experiment: MST binding assay, hMRP4
# T2 sequence (O15439 1-1325): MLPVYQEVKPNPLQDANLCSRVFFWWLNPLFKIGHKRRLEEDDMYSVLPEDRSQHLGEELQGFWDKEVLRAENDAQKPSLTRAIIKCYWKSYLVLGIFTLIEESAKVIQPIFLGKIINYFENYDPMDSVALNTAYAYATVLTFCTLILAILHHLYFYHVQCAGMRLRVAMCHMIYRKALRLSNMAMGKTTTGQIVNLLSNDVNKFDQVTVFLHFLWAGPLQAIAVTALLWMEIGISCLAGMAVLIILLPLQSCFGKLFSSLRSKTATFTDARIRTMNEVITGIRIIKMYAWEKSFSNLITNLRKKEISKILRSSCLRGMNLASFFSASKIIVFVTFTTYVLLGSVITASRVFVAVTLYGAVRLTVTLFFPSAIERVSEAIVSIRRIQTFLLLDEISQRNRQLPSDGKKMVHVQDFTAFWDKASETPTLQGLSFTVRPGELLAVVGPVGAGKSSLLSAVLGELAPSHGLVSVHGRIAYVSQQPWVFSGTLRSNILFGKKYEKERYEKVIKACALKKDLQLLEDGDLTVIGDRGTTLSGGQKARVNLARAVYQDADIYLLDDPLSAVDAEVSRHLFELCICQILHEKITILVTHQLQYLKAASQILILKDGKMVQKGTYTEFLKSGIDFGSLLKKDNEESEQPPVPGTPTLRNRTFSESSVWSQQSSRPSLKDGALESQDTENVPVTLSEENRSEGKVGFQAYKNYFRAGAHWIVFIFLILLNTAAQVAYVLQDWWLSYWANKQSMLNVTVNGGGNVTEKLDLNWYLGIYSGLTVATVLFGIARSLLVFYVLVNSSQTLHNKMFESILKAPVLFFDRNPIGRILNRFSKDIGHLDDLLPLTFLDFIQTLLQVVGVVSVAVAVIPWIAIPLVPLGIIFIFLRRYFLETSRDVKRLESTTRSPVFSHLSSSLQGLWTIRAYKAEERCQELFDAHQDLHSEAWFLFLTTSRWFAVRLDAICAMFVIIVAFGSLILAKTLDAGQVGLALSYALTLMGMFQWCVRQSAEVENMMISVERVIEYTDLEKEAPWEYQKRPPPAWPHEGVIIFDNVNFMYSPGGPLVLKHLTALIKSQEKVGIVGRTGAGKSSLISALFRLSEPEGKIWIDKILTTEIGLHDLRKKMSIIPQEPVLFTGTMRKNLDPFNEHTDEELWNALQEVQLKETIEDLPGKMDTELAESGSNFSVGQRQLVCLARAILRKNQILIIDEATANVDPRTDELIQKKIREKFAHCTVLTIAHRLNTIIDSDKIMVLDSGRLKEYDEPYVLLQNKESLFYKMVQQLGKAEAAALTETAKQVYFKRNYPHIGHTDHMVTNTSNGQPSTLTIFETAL
smiles,measurement,setting,value
O=c1[nH]cc(F)c(=O)[nH]1 [5-fluorouracil],"intracellular drug concentration on reducing endogenous MRP5, in words",[1],notably increase the intracellular concentrations
Nc1ncnc2c1ncn2CCOCP(=O)(O)O [9-(2-phosphonomethoxyethyl) adenine],"transport by hMRP5, in words","[2]; antiviral monophosphate nucleotide analog, ref [18]",leading to antiviral multidrug resistance
"COc1cccc2c1C(=O)c1c(O)c3c(c(O)c1C2=O)C[C@@](O)(C(=O)CO)C[C@@H]3O[C@H]1C[C@H](N)[C@H](O)[C@H](C)O1 [Doxorubicin, doxorubicin]",Kd,[3],53.5 ± 22.9 µM
same,"Doxorubicin concentration in oocyte extract, GFP-hMRP5",[4]; replicate 1,323.646 nM
same,"Doxorubicin concentration in oocyte extract, GFP-hMRP5",[4]; replicate 2,292.08 nM
same,"Doxorubicin concentration in oocyte extract, GFP-hMRP5",[4]; replicate 3,493.92 nM
same,"Doxorubicin concentration in oocyte extract, GFP-hMRP5",[4]; replicate 4,266.323 nM
same,"efflux by hMRP5 / contribution to drug resistance, in words",[2],directly contribute to cancer drug resistance through the efflux
CN(C)C(=O)CCSC(SCCC(=O)O)c1cccc(/C=C/c2ccc3ccc(Cl)cc3n2)c1 (stereo not shown) [MK-571],"inhibition of MRP5 transport activity, in words",[5],reported to inhibit the transport activity of MRP5
"CCCCC[C@H](O)/C=C/[C@H]1[C@H](O)CC(=O)[C@@H]1CCCCCCC(=O)O [PGE1, prostaglandin E1]",Kd,[6],3.73 ± 0.66 µM
same,"binding affinity to hMRP4, in words","[6]; MST, three independent measurements",hMRP4 could capture prostaglandin E1 (PGE1)
"COc1cc2c(cc1OC)-c1c/c(=N\c3c(C)cc(C)cc3C)n(C)c(=O)n1CC2 [Trequinsin, trequinsin]",Kd,"[3]; digitonin-purified hMRP5-Δ1-94-8xHis, HEPES buffer, RED-tris-NTA 2nd Generation dye, 15 min at room temperature, 3% LED/excitation power, medium MST power, mean ± SEM of three independent measurements, read-out: binding affinity (MST), KD value",42.4 ± 17.5 µM
same,"inhibition of MRP5 transport activity, in words",[5],reported to inhibit the transport activity of MRP5
"Nc1nc2c(ncn2[C@@H]2O[C@@H]3COP(=O)(O)O[C@H]3[C@H]2O)c(=O)[nH]1 [cGMP, cyclic GMP]","binding affinity to hMRP5, in words",[3],relatively low binding affinity
N.N.[Cl][Pt][Cl] [cisplatin],"efflux by hMRP5 / contribution to drug resistance, in words",[2],directly contribute to cancer drug resistance through the efflux
CN(Cc1cnc2nc(N)nc(N)c2n1)c1ccc(C(=O)N[C@@H](CCC(=O)O)C(=O)O)cc1 [methotrexate],"efflux by hMRP5 / contribution to drug resistance, in words",[2],directly contribute to cancer drug resistance through the efflux
Nc1nc2[nH]cc(CCc3ccc(C(=O)N[C@@H](CCC(=O)O)C(=O)O)cc3)c2c(=O)[nH]1 [pemetrexed],"intracellular drug concentration on reducing endogenous MRP5, in words",[1],notably increase the intracellular concentrations
CCCN(CCC)S(=O)(=O)c1ccc(C(=O)O)cc1 [probenecid],"inhibition of MRP5 transport activity, in words",[5],reported to inhibit the transport activity of MRP5
CC(=O)[C@H]1CC[C@H]2[C@@H]3CCC4=CC(=O)CC[C@]4(C)[C@H]3CC[C@]12C [progesterone],"binding affinity to hMRP5, in words",[3],relatively low binding affinity
CCCc1nn(C)c2c(=O)[nH]c(-c3cc(S(=O)(=O)N4CCN(C)CC4)ccc3OCC)nc12 [sildenafil],"inhibition of MRP5 transport activity, in words",[5],reported to inhibit the transport activity of MRP5
C[C@]12CC[C@H]3[C@@H](CCC4=CC(=O)CC[C@@]43C)[C@@H]1CC[C@@H]2O [testosterone],"binding affinity to hMRP5, in words",[3],relatively low binding affinity
CCCOc1ccccc1-c1nc2nn[nH]c2c(=O)[nH]1 [zaprinast],"inhibition of MRP5 transport activity, in words",[5],reported to inhibit the transport activity of MRP5
